PubChem BioAssay (NCI)
Values joined by “and” are separate entries in the source; they are usually repeats but may differ in a detail not shown here. Equal entries are not always repeated.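 Following 48 hours of exposure in 96-well plates, responses at five concentrations were used to interpolate endpoints linearly. GI50 = concentration required for 50% inhibition of growth. TGI denotes the concentration required for complete inhibition of growth.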

Legend:
Assay in all cases: NCI anticancer screen, dose series, 48 h
HCT-116 colon = tested on: HCT-116 colon
NCI-H23 lung = tested on: NCI-H23 lung
HCT-15 colon = tested on: HCT-15 colon
K-562 leukemia = tested on: K-562 leukemia
HS 578T breast = tested on: HS 578T breast
MDA-MB-435 = tested on: MDA-MB-435
U251 CNS = tested on: U251 CNS
CCRF-CEM leukemia = tested on: CCRF-CEM leukemia
COLO 205 colon = tested on: COLO 205 colon
SF-539 CNS = tested on: SF-539 CNS

SMILES: COc1ccccc1-c1cc2c3c(nc4ccccc42)C(=O)c2cccnc2-c3n1
- GI50 (HCT-116 colon): 4.89 µM
- TGI (HCT-116 colon): 14.6 µM
- GI50 (NCI-H23 lung): 9.06 µM
- TGI (NCI-H23 lung): 25.3 µM
- GI50 (HCT-15 colon): 3.55 µM
- TGI (HCT-15 colon): 8.62 µM
- GI50 (K-562 leukemia): > 19.6 µM
- TGI (K-562 leukemia): > 100 µM
- GI50 (HS 578T breast): 17.9 µM
- TGI (HS 578T breast): 37.9 µM
- GI50 (MDA-MB-435): 12.5 µM
- TGI (MDA-MB-435): 33.3 µM
- GI50 (U251 CNS): 3.77 µM
- TGI (U251 CNS): 11.4 µM
- GI50 (CCRF-CEM leukemia): 4.94 µM
- TGI (CCRF-CEM leukemia): > 100 µM
- GI50 (COLO 205 colon): 20.9 µM
- TGI (COLO 205 colon): 55.1 µM
- GI50 (SF-539 CNS): 14.8 µM
- TGI (SF-539 CNS): 35.4 µM

SMILES: O=C1C=C(SCCO)C(=O)c2ccccc21
- GI50 (HCT-116 colon): 1.8 µM
- TGI (HCT-116 colon): 3.68 µM
- GI50 (NCI-H23 lung): 1.49 µM
- TGI (NCI-H23 lung): 3.42 µM
- GI50 (HCT-15 colon): 1.91 µM
- TGI (HCT-15 colon): 3.9 µM
- GI50 (K-562 leukemia): 1.28 µM
- TGI (K-562 leukemia): 4.25 µM
- GI50 (HS 578T breast): 2.21 µM
- TGI (HS 578T breast): 7.5 µM
- GI50 (MDA-MB-435): 1.34 µM
- TGI (MDA-MB-435): 2.65 µM
- GI50 (U251 CNS): 1.76 µM
- TGI (U251 CNS): 3.25 µM
- GI50 (CCRF-CEM leukemia): 1.14 µM
- TGI (CCRF-CEM leukemia): 4.79 µM
- GI50 (COLO 205 colon): 2.11 µM
- TGI (COLO 205 colon): 4.29 µM
- GI50 (SF-539 CNS): 1.65 µM
- TGI (SF-539 CNS): 3.03 µM

SMILES: Cn1cc(-c2cc3c(Nc4ccc(CC(=O)Nc5cc(C(C)(C)C)on5)cc4)ncnc3[nH]2)cn1
- GI50 (HCT-116 colon): 0.68 µM and 0.337 µM
- TGI (HCT-116 colon): 4.86 µM and 1.99 µM
- GI50 (NCI-H23 lung): 0.811 µM and 0.449 µM
- TGI (NCI-H23 lung): 3.49 µM and 2.51 µM
- GI50 (HCT-15 colon): 3.26 µM and 2.91 µM
- TGI (HCT-15 colon): 13.8 µM and 10.3 µM
- GI50 (K-562 leukemia): 1.21 µM and 0.596 µM
- TGI (K-562 leukemia): > 100 µM and 11.2 µM
- GI50 (HS 578T breast): 0.42 µM and 0.276 µM
- TGI (HS 578T breast): 1.72 µM and 1.56 µM
- GI50 (MDA-MB-435): 0.845 µM and 0.944 µM
- TGI (MDA-MB-435): 2.95 µM and 4.29 µM
- GI50 (U251 CNS): 0.586 µM and 0.38 µM
- TGI (U251 CNS): 5.84 µM and 6.41 µM
- GI50 (CCRF-CEM leukemia): 0.395 µM and 0.302 µM
- GI50 (COLO 205 colon): 0.364 µM and 0.354 µM
- TGI (COLO 205 colon): 1.21 µM and 1.65 µM
- GI50 (SF-539 CNS): 0.425 µM and 0.265 µM
- TGI (SF-539 CNS): 1.7 µM and 1.63 µM

SMILES: COc1ccc(-c2nc(-c3nc4ccc(F)cc4[nH]3)cc3c2[nH]c2ccccc23)cc1
- GI50 (HCT-116 colon): 2.69 µM
- TGI (HCT-116 colon): 8.25 µM
- GI50 (NCI-H23 lung): 3.01 µM
- TGI (NCI-H23 lung): 10.9 µM
- GI50 (HCT-15 colon): 2.82 µM
- TGI (HCT-15 colon): > 100 µM
- GI50 (K-562 leukemia): 2.79 µM
- TGI (K-562 leukemia): > 100 µM
- GI50 (HS 578T breast): 2.82 µM
- TGI (HS 578T breast): > 100 µM
- GI50 (MDA-MB-435): 2.58 µM
- TGI (MDA-MB-435): 13.4 µM
- GI50 (U251 CNS): 2.42 µM
- TGI (U251 CNS): 7.26 µM
- GI50 (CCRF-CEM leukemia): 2.29 µM
- TGI (CCRF-CEM leukemia): 25.6 µM
- GI50 (COLO 205 colon): 2.1 µM
- TGI (COLO 205 colon): 4.71 µM
- GI50 (SF-539 CNS): 2.8 µM
- TGI (SF-539 CNS): 9.33 µM

SMILES: CCC(=O)Sc1ccccc1C(=O)Nc1ccc(Cl)cc1
- GI50 (HCT-116 colon): 3.58 µM
- TGI (HCT-116 colon): 13.1 µM
- GI50 (NCI-H23 lung): 6.43 µM
- TGI (NCI-H23 lung): 39.2 µM
- GI50 (HCT-15 colon): 7.79 µM
- TGI (HCT-15 colon): > 100 µM
- GI50 (K-562 leukemia): 3.83 µM
- TGI (K-562 leukemia): > 100 µM
- GI50 (HS 578T breast): 15.9 µM
- TGI (HS 578T breast): 66.4 µM
- GI50 (MDA-MB-435): 6.92 µM
- TGI (MDA-MB-435): 39.9 µM
- GI50 (U251 CNS): 5.73 µM
- TGI (U251 CNS): 32.3 µM
- GI50 (CCRF-CEM leukemia): 4.22 µM
- TGI (CCRF-CEM leukemia): > 100 µM
- GI50 (COLO 205 colon): 13.6 µM
- TGI (COLO 205 colon): 32.1 µM
- GI50 (SF-539 CNS): 11.2 µM
- TGI (SF-539 CNS): 30.5 µM

SMILES: COc1ccc(C2C3=C(NC(=O)C2C#N)c2ccc4ccccc4c2OCC3)cc1 (centres undefined)
- GI50 (HCT-116 colon): 35.8 µM
- TGI (HCT-116 colon): > 100 µM
- GI50 (NCI-H23 lung): 87.1 µM
- TGI (NCI-H23 lung): > 100 µM
- GI50 (HCT-15 colon): > 100 µM
- TGI (HCT-15 colon): > 100 µM
- GI50 (K-562 leukemia): > 100 µM
- TGI (K-562 leukemia): > 100 µM
- GI50 (HS 578T breast): 22.6 µM
- TGI (HS 578T breast): 56.6 µM
- GI50 (MDA-MB-435): > 100 µM
- TGI (MDA-MB-435): > 100 µM
- GI50 (U251 CNS): 23.6 µM
- TGI (U251 CNS): 54.2 µM
- GI50 (CCRF-CEM leukemia): > 100 µM
- TGI (CCRF-CEM leukemia): > 100 µM
- GI50 (COLO 205 colon): > 100 µM
- TGI (COLO 205 colon): > 100 µM
- GI50 (SF-539 CNS): 12.9 µM
- TGI (SF-539 CNS): 28 µM
